The text below walks through data of paper PMC4865845, “A human genome-wide loss-of-function screen identifies effective chikungunya antiviral drugs” (Nature Communications, 2016).

The test system of the data set is CHIKV. The class given is cell-based, chikungunya virus.
With “s51652 (sense CCAGGCCCATTCTACAATA; chemistry not given here)”, the Score_si4 was 0.04.
Still for that read-out and setting: to “Hs_UBE2C_3 (GCCCTTGTATATTAAATAAAT; chemistry not given here) [reference compound]” belongs -0.41.
“Hs_DC-UbP_5 (AGGCAGTTAAGAAATAGATAA; chemistry not given here)” gave a Score_si3 of 0.86.
Turning to “s5570 (sense TGAACAAGATGGTATCAAA; chemistry not given here)”, the Score_si4 is on record as -0.08.
“s13806 (sense TCATCACCGTGTCCAATCA; chemistry not given here)”: the Score_si2 is listed as 1.6.
In the case of “Hs_SREBF2_4 (sense AAGGCCATTGATTACATCAAA; chemistry not given here)”, the Score_si3 was 1.41.
In turn, “s15796 (CTACGATTCTGGTGGAATA; chemistry not given here)” yielded a Score_si1 of 1.5.
As to “s38243 (AGAAATTCCGGAACCAATT; chemistry not given here)”, the Score_si2 was 0.8.
In the case of “s31800 (CCACACTCATCTATCGCAA; chemistry not given here)”, the Score_si2 turned out to be 1.32.
Turning to “Hs_PSD3_2 (sense ACCAAACGTGTTTAAACTTAA; chemistry not given here) [reference compound]”, the Score_si4 is listed as -0.52.
“s6350 (sense GCCCATATACATTCTGCAA; chemistry not given here) [reference compound]”: the Score_si4 was -0.73.
In the case of “Hs_ITGB4BP_2 (sense AAGCTACTGTGTCTTCAGCAA; chemistry not given here)”, the Score_si4 was 1.08.
Consider “Hs_PD2_1 (ACCGAGGAAGAAATATACAAA; chemistry not given here)”, for which the Score_si4 worked out at 1.16.
As to “s30117 (GGTCTTTGGTGGTGTACAA; chemistry not given here)”, the Score_si3 is given as 0.96.
Substance “Hs_TGIF_4 (sense TACCACTGTGACTGCATTGAA; chemistry not given here)” returned a Score_si4 of 0.65.
“s36691 (CAGATGTTATGGATATAAT; chemistry not given here) [reference compound]”: the Score_si1 was -1.07.
“s6672 (sense GACTAATGAACTACTAAAA; chemistry not given here)”: the Score_si3 is listed as 0.16.
Substance “Hs_MAZ_2 (CCGCGACGTCTACCACCTGAA; chemistry not given here)” had a Score_si1 of 2.43.
Regarding “s20508 (sense CACTTGAGGAGTTACTGAA; chemistry not given here) [reference compound]”, the Score_si4 is reported as -0.76.
“Hs_KIAA0674_2 (sense CCCGGCAACATAACACTGAAA; chemistry not given here)” showed a Score_si2 of 1.52.
Regarding “Hs_MGC13138_1 (CTGGCATTTCCCGCTCATTTA; chemistry not given here) [reference compound]”, the Score_si1 was -2.19.
For “Hs_HMGA1L4_2 (sense CTGGCTGGATGAAGACAGTAA; chemistry not given here)”, the Score_si4 was determined as 0.45.
Take “s37713 (GAACCTCCTTCGGGATAAA; chemistry not given here)”: the Score_si3 was found to be 0.52.
With “Hs_CLK1_2 (sense AACGTGATGAACGCACCTTAA; chemistry not given here)”, the Score_si3 is on record as 1.36.
For “Hs_CGI-12_1 (sense AAGATGTTAACTGCAAATAAA; chemistry not given here) [reference compound]”, the Score_si1 is reported as -2.28.
In the case of “s28365 (sense AGATCGACAAGAACGAAGA; chemistry not given here) [reference compound]”, the Score_si4 is given as -0.72.
Same read-out and setting: to “Hs_PMPCB_4 (TACATTTATAATAGGAGTCCA; chemistry not given here)” belongs 0.83.
For “Hs_COPS2_1 (sense CACGATATACTGCACTAGATA; chemistry not given here)”, the Score_si2 is reported as 1.3.
Consider “Hs_SYMPK_1 (sense CAGGAGCTGATCATCAACAAA; chemistry not given here)”, for which the Score_si3 came to 1.54.
With “Hs_CRSP7_2 (sense GAGAAATACCCTATTACCAAA; chemistry not given here) [reference compound]”, the Score_si1 was -1.9.
The substance “s31193 (GGAATGATGTCGTCAGTAA; chemistry not given here)” yielded a Score_si4 of 1.58.
Consider “Hs_EXOSC1_2 (AAGCAGAGAAAGACATCTAAA; chemistry not given here) [reference compound]”, for which the Score_si1 is listed as -2.21.
As to “s10858 (sense CCCGCTTTATCGAAGGCAA; chemistry not given here)”, the Score_si2 is 1.05.
For “s6126 (sense GAATGCTCCTTTACCAGAA; chemistry not given here)”, the Score_si2 worked out at 0.75.
Substance “Hs_NRCAM_4 (AGGGTGGTAAATATCCAGTTA; chemistry not given here)” registered a Score_si1 of 1.08.
The substance “s194476 (sense GCATGCTGCTGGCAGATCA; chemistry not given here)” displayed a Score_si2 of 1.47.
“s28992 (GAGCAACTCTGGTCGTGTA; chemistry not given here)”: the Score_si3 is 0.46.
Substance “s16634 (GCATAGTTTCGGTCATCTA; chemistry not given here)” had a Score_si1 of 2.03.
Substance “Hs_FLJ31164_2 (sense CCAGCTGAGCACCCGAATAAA; chemistry not given here)” returned a Score_si4 of 0.41.
Regarding “s35331 (GCAGGTAATCTCTATACTA; chemistry not given here)”, the Score_si2 is given as 1.81.
Take “s16047 (GAACCCATATTATTAGTGA; chemistry not given here) [reference compound]”: the Score_si2 is -0.72.
Take “Hs_ZNF261_1 (AAGGTCTTATCTGAAAGGTAA; chemistry not given here) [reference compound]”: the Score_si1 is -2.35.
With “s18704 (sense GCAGATTATTTGCAAGCGA; chemistry not given here) [reference compound]”, the Score_si3 was -0.73.
“s195642 (sense GGTGAGGACAAGTTCCAGT; chemistry not given here)”: the Score_si3 came to 0.49.
The substance “Hs_EEF1A1_4 (CAACGTTACAACGGAAGTAAA; chemistry not given here)” yielded a Score_si1 of 2.64.
Regarding “Hs_SDFR1_9 (sense CTGGTACATAAAGATGAGTAA; chemistry not given here) [reference compound]”, the Score_si3 is given as -1.41.
In turn, “s49211 (sense GTTCCTGGGTGTTCACCTA; chemistry not given here)” gave a Score_si4 of 0.08.
“s12470 (sense GGATGTGGACAACAAAGTA; chemistry not given here)” yielded a Score_si4 of 1.56.
For the substance “s38294 (GGGTCCTGTTCATAAAGGA; chemistry not given here)”, the Score_si4 is 1.14.
Turning to “Hs_MGC2803_2 (CGGGAACAAACTAGCCCTCAA; chemistry not given here)”, the Score_si1 worked out at 2.43.
Turning to “Hs_FLT4_8 (sense CACCGTGTGGGCTGAGTTTAA; chemistry not given here)”, the Score_si2 is 1.07.
On to “Hs_PHF10_3 (CGGACAGTTCCAGGAATATTA; chemistry not given here)”, for which the Score_si2 was 0.88.
As to “Hs_P4HB_5 (CAGGACGGTCATTGATTACAA; chemistry not given here)”, the Score_si2 came out at 1.15.
In turn, “Hs_EEF2_2 (TGCCGTTTCTTTCAATATTTA; chemistry not given here)” yielded a Score_si1 of 2.07.
With “Hs_COPS2_3 (sense ATGAATAGATATAAGCAGCTA; chemistry not given here)”, the Score_si1 is 2.07.
On to “Hs_PCQAP_10 (CAGCATCTAATTAAATTGCAT; chemistry not given here) [reference compound]”, for which the Score_si3 is -0.74.
“Hs_TRRAP_1 (AAGATTCGACAGCAAGTTAAA; chemistry not given here)” displayed a Score_si4 of 1.01.
The same measure, in the same setting: to “s35330 (CGGTGACTATGAAAGAAAT; chemistry not given here)” belongs 0.15.
Substance “Hs_DKFZP564C186_2 (CACGGACAGTGCTGCATTCAA; chemistry not given here)” gave a Score_si3 of 1.17.
For “Hs_KCTD10_1 (sense AAGGCTTTGTTTAGGGATCAA; chemistry not given here)”, the Score_si1 amounted to 2.04.
In turn, “s31181 (CCACTCGTTTTGACTATTA; chemistry not given here)” returned a Score_si4 of 1.82.
“Hs_ENTPD2_2 (CGGCGTGATCTTCCAGAAGAA; chemistry not given here)” gave a Score_si1 of 1.32.
Substance “Hs_FCGRT_1 (CTCGTCGTCACTAACAGTCAA; chemistry not given here)” gave a Score_si1 of 2.15.
Regarding “Hs_MGC21830_2 (CAGCTGGGCGGTGCTGTTCGA; chemistry not given here) [reference compound]”, the Score_si2 is given as -1.02.
As for “s24923 (sense GGAAGTGAAGGAGTAAGTA; chemistry not given here) [reference compound]”, the Score_si4 was -0.27.
As to “s37727 (GTAGCAGTGTGGTAGGATA; chemistry not given here)”, the Score_si4 is -0.44.
On to “Hs_RXRA_3 (sense TCCGTACGATTGTCTCTGAAA; chemistry not given here)”, for which the Score_si4 was 0.81.
As to “s15686 (sense CCATCCACATGTACATCAA; chemistry not given here)”, the Score_si2 is reported as 1.49.
“Hs_RAB3D_5 (sense TCCGTGGTGCCTTCTAGCTTA; chemistry not given here)” yielded a Score_si3 of 0.91.
“Hs_FASN_3 (CCGCTACATGGCCCAAGGGAA; chemistry not given here)” had a Score_si1 of 2.39.
For the substance “Hs_SCLY_2 (sense CAGAAACTAAATTAACGAATA; chemistry not given here)”, the Score_si4 is 1.04.
In the case of “s16837 (CAATGATCCAATCCACGAA; chemistry not given here)”, the Score_si1 is reported as 1.36.
